Source: patent publication US20250042875A1, “PESTICIDALLY ACTIVE PYRIDAZINONE COMPOUNDS” (SYNGENTA CROP PROTECTION AG, priority 2021, published 2025)

What was measured:
Type in all cases: in vivo
Chilo suppressalis = assay: Activity against Chilo suppressalis (striped rice stemborer), artificial diet, L2 larvae; conditions: 144 h, application rate 200 ppm, 6 days after infestation, read-out: control in at least one of the three categories (mortality, anti-feedant effect, or growth inhibition)
Method: Example B1: Activity Against Chilo suppressalis (Striped Rice Stemborer)
24-well microtiter plates with artificial diet were treated with aqueous test solutions prepared from 10′000 ppm DMSO stock solutions by pipetting. After drying, the plates were infested with L2 larvae (6-8 per well). The samples were assessed for mortality, anti-feeding effect, and growth inhibition in comparison to untreated samples 6 days after infestation. Control of Chilo suppressalis by a test sample is given when at least one of the categories mortality, anti-feedant effect, and growth inhibition is higher than the untreated sample.

Diabrotica balteata = assay: Activity against Diabrotica balteata (corn root worm), maize sprouts, L2 larvae; conditions: 96 h, application rate 200 ppm, 4 days after infestation, read-out: control in at least one of the two categories (mortality or growth inhibition)
Method: Example B2: Activity Against Diabrotica Balteata (Corn Root Worm)
Maize sprouts placed onto an agar layer in 24-well microtiter plates were treated with aqueous test solutions prepared from 10′000 ppm DMSO stock solutions by spraying. After drying, the plates were infested with L2 larvae (6 to 10 per well). The samples were assessed for mortality and growth inhibition in comparison to untreated samples 4 days after infestation.

Myzus persicae = assay: Activity against Myzus persicae (green peach aphid), intrinsic activity; conditions: 120 h, test rate 12 ppm, 5 days after infestation
Description: Example B6: Activity Against Myzus persicae (Green Peach Aphid). Intrinsic Activity
Test compounds prepared from 10′000 ppm DMSO stock solutions were applied by pipette into 24-well microtiter plates and mixed with sucrose solution. The plates were closed with a stretched Parafilm. A plastic stencil with 24 holes was placed onto the plate and infested pea seedlings were placed directly on the Parafilm. The infested plate was closed with a gel blotting paper and another plastic stencil and then turned upside down. The samples were assessed for mortality 5 days after infestation.

Plutella xylostella = assay: Activity against Plutella xylostella (diamond back moth), artificial diet, eggs; conditions: 192 h, application rate 200 ppm, 8 days after infestation, read-out: control in at least one of the two categories (mortality or growth inhibition)
Method: Example B7: Activity Against Plutella xylostella (Diamond Back Moth)
24-well microtiter plates with artificial diet were treated with aqueous test solutions prepared from 10′000 ppm DMSO stock solutions by pipetting. After drying, Plutella eggs were pipetted through a plastic stencil onto a gel blotting paper and the plate was closed with it. The samples were assessed for mortality and growth inhibition in comparison to untreated samples 8 days after infestation.

Spodoptera littoralis = assay: Activity against Spodoptera littoralis (Egyptian cotton leaf worm), cotton leaf discs, L1 larvae; conditions: foliar, 72 h, application rate 200 ppm, 3 days after infestation, read-out: control in at least one of the three categories (mortality, anti-feedant effect, or growth inhibition)
Method: Example B8: Activity Against Spodoptera littoralis (Egyptian Cotton Leaf Worm)
Cotton leaf discs were placed onto agar in 24-well microtiter plates and sprayed with aqueous test solutions prepared from 10′000 ppm DMSO stock solutions. After drying the leaf discs were infested with five L1 larvae. The samples were assessed for mortality, anti-feeding effect, and growth inhibition in comparison to untreated samples 3 days after infestation. Control of Spodoptera littoralis by a test sample is given when at least one of the categories mortality, anti-feedant effect, and growth inhibition is higher than the untreated sample.

Euschistus heros = assay: Activity against Euschistus heros (neotropical brown stink bug), soybean leaves, N2 nymphs; conditions: 120 h, application rate 200 ppm, 5 days after infestation, read-out: effect in at least one of the two categories (mortality or growth inhibition)
Method: Example B3: Activity Against Euschistus heros (Neotropical Brown Stink Bug)
Soybean leaves on agar in 24-well microtiter plates were sprayed with aqueous test solutions prepared from 10′000 ppm DMSO stock solutions. After drying the leaves were infested with N2 nymphs. The samples were assessed for mortality and growth inhibition in comparison to untreated samples 5 days after infestation.

CC(NC(=O)c1cc(C(F)(F)F)cc(C(F)(F)F)c1)c1nccnc1-c1ccc(=O)n(C)n1 (stereo not shown) [P3, N-[1-[3-(1-methyl-6-oxo-pyridazin-3-yl)pyrazin-2-yl]ethyl]-3,5-bis(trifluoromethyl)benzamide]
≥ 80%: percent control (mortality, anti-feedant effect or growth inhibition) at 200 ppm (Chilo suppressalis) | percent control (mortality or growth inhibition) at 200 ppm (Diabrotica balteata) | mortality at 12 ppm (Myzus persicae) | percent control (mortality or growth inhibition) at 200 ppm (Plutella xylostella) | percent control (mortality, anti-feedant effect or growth inhibition) at 200 ppm (Spodoptera littoralis)

C[C@H](NC(=O)c1cc(Cl)cc(C(F)(F)F)c1)c1ncnn1-c1ccc(=O)n(C)n1 [P4, 3-chloro-N-[(1S)-1-[2-(1-methyl-6-oxo-pyridazin-3-yl)-1,2,4-triazol-3-yl]ethyl]-5-(trifluoromethyl) benzamide]
≥ 80%: percent effect (mortality or growth inhibition) at 200 ppm (Euschistus heros) | percent control (mortality, anti-feedant effect or growth inhibition) at 200 ppm (Chilo suppressalis) | percent control (mortality or growth inhibition) at 200 ppm (Diabrotica balteata) | mortality at 12 ppm (Myzus persicae) | percent control (mortality or growth inhibition) at 200 ppm (Plutella xylostella) | percent control (mortality, anti-feedant effect or growth inhibition) at 200 ppm (Spodoptera littoralis)

CC(NC(=O)c1cc(Cl)cc(I)c1)c1nccnc1-c1ccc(=O)n(C)n1 (stereo not shown) [P12, 3-chloro-5-iodo-N-[1-[3-(1-methyl-6-oxo-pyridazin-3-yl)pyrazin-2-yl]ethyl]benzamide]
≥ 80%: percent control (mortality, anti-feedant effect or growth inhibition) at 200 ppm (Chilo suppressalis) | percent control (mortality or growth inhibition) at 200 ppm (Diabrotica balteata) | mortality at 12 ppm (Myzus persicae) | percent control (mortality or growth inhibition) at 200 ppm (Plutella xylostella) | percent control (mortality, anti-feedant effect or growth inhibition) at 200 ppm (Spodoptera littoralis)

CC(NC(=O)c1cc(Br)cc(Br)c1)c1nccnc1-c1ccc(=O)n(C)n1 (stereo not shown) [P13, 3,5-dibromo-N-[1-[3-(1-methyl-6-oxo-pyridazin-3-yl)pyrazin-2-yl]ethyl]benzamide]
≥ 80%: percent control (mortality, anti-feedant effect or growth inhibition) at 200 ppm (Chilo suppressalis) | percent control (mortality or growth inhibition) at 200 ppm (Diabrotica balteata) | mortality at 12 ppm (Myzus persicae) | percent control (mortality or growth inhibition) at 200 ppm (Plutella xylostella) | percent control (mortality, anti-feedant effect or growth inhibition) at 200 ppm (Spodoptera littoralis)

CC(NC(=O)c1cc(Br)cc(I)c1)c1nccnc1-c1ccc(=O)n(C)n1 (stereo not shown) [P15, 3-bromo-5-iodo-N-[1-[3-(1-methyl-6-oxo-pyridazin-3-yl)pyrazin-2-yl]ethyl]benzamide]
≥ 80%: percent control (mortality, anti-feedant effect or growth inhibition) at 200 ppm (Chilo suppressalis) | mortality at 12 ppm (Myzus persicae) | percent control (mortality or growth inhibition) at 200 ppm (Plutella xylostella) | percent control (mortality, anti-feedant effect or growth inhibition) at 200 ppm (Spodoptera littoralis)

C[C@H](NC(=O)c1cc(Cl)cc(S(=O)(=O)C(F)(F)F)c1)c1ncnn1C1=NN(C)C(=O)CC1 [P21, 3-chloro-N-[(1S)-1-[2-(1-methyl-6-oxo-4,5-dihydropyridazin-3-yl)-1,2,4-triazol-3-yl]ethyl]-5-(trifluoromethylsulfonyl) benzamide]
≥ 80%: percent effect (mortality or growth inhibition) at 200 ppm (Euschistus heros) | percent control (mortality, anti-feedant effect or growth inhibition) at 200 ppm (Chilo suppressalis) | percent control (mortality or growth inhibition) at 200 ppm (Diabrotica balteata) | mortality at 12 ppm (Myzus persicae) | percent control (mortality or growth inhibition) at 200 ppm (Plutella xylostella) | percent control (mortality, anti-feedant effect or growth inhibition) at 200 ppm (Spodoptera littoralis)

C[C@H](NC(=O)c1cc(C(F)(F)F)cc(C2(C#N)CC2)c1)c1ncnn1-c1ccc(=O)n(C)n1 [P25, 3-(1-cyanocyclopropyl)-N-[(1S)-1-[2-(1-methyl-6-oxo-pyridazin-3-yl)-1,2,4-triazol-3-yl]ethyl]-5-(trifluoromethyl)benzamide]
≥ 80%: percent effect (mortality or growth inhibition) at 200 ppm (Euschistus heros) | percent control (mortality, anti-feedant effect or growth inhibition) at 200 ppm (Chilo suppressalis) | percent control (mortality or growth inhibition) at 200 ppm (Diabrotica balteata) | mortality at 12 ppm (Myzus persicae) | percent control (mortality or growth inhibition) at 200 ppm (Plutella xylostella) | percent control (mortality, anti-feedant effect or growth inhibition) at 200 ppm (Spodoptera littoralis)

CC(NC(=O)c1cc(Cl)cc(S(=O)(=O)C(F)(F)F)c1)c1nccnc1-c1ccc(=O)n(C)n1 (stereo not shown) [P31, 3-chloro-N-[1-[3-(1-methyl-6-oxo-pyridazin-3-yl)pyrazin-2-yl]ethyl]-5-(trifluoromethylsulfonyl) benzamide]
≥ 80%: percent control (mortality, anti-feedant effect or growth inhibition) at 200 ppm (Chilo suppressalis) | mortality at 12 ppm (Myzus persicae) | percent control (mortality or growth inhibition) at 200 ppm (Plutella xylostella) | percent control (mortality, anti-feedant effect or growth inhibition) at 200 ppm (Spodoptera littoralis)

C[C@H](NC(=O)c1cc(I)cc(C(F)(F)F)c1)c1ncnn1-c1ccc(=O)n(C)n1 [P36, 3-iodo-N-[(1S)-1-[2-(1-methyl-6-oxo-pyridazin-3-yl)-1,2,4-triazol-3-yl]ethyl]-5-(trifluoromethyl)benzamide]
≥ 80%: percent effect (mortality or growth inhibition) at 200 ppm (Euschistus heros) | percent control (mortality, anti-feedant effect or growth inhibition) at 200 ppm (Chilo suppressalis) | percent control (mortality or growth inhibition) at 200 ppm (Diabrotica balteata) | mortality at 12 ppm (Myzus persicae) | percent control (mortality or growth inhibition) at 200 ppm (Plutella xylostella) | percent control (mortality, anti-feedant effect or growth inhibition) at 200 ppm (Spodoptera littoralis)

C[C@H](NC(=O)c1cc(Cl)cc(OC(F)F)c1)c1ncnn1-c1ccc(=O)n(C)n1 [P37, 3-chloro-5-(difluoromethoxy)-N-[(1S)-1-[2-(1-methyl-6-oxo-pyridazin-3-yl)-1,2,4-triazol-3-yl]ethyl]benzamide]
≥ 80%: percent effect (mortality or growth inhibition) at 200 ppm (Euschistus heros) | percent control (mortality or growth inhibition) at 200 ppm (Diabrotica balteata) | mortality at 12 ppm (Myzus persicae) | percent control (mortality or growth inhibition) at 200 ppm (Plutella xylostella)

CC(NC(=O)c1cc(Br)nc(C2(C#N)CC2)c1)c1nccnc1-c1ccc(=O)n(C)n1 (stereo not shown) [P38, 2-bromo-6-(1-cyanocyclopropyl)-N-[1-[3-(1-methyl-6-oxo-pyridazin-3-yl)pyrazin-2-yl]ethyl]pyridine-4-carboxamide]
≥ 80%: percent control (mortality, anti-feedant effect or growth inhibition) at 200 ppm (Chilo suppressalis) | percent control (mortality or growth inhibition) at 200 ppm (Plutella xylostella) | percent control (mortality, anti-feedant effect or growth inhibition) at 200 ppm (Spodoptera littoralis)

C[C@H](NC(=O)c1cc(Br)nc(C2(C#N)CC2)c1)c1ncnn1-c1ccc(=O)n(C)n1 [P39, 2-bromo-6-(1-cyanocyclopropyl)-N-[(1S)-1-[2-(1-methyl-6-oxo-pyridazin-3-yl)-1,2,4-triazol-3-yl]ethyl]pyridine-4-carboxamide]
≥ 80%: percent effect (mortality or growth inhibition) at 200 ppm (Euschistus heros)

CC(NC(=O)c1cc(Cl)cc(C(F)F)c1)c1nccnc1-c1ccc(=O)n(C)n1 (stereo not shown) [P41, 3-chloro-5-(difluoromethyl)-N-[1-[3-(1-methyl-6-oxo-pyridazin-3-yl)pyrazin-2-yl]ethyl]benzamide]
≥ 80%: percent control (mortality, anti-feedant effect or growth inhibition) at 200 ppm (Chilo suppressalis) | percent control (mortality or growth inhibition) at 200 ppm (Diabrotica balteata) | mortality at 12 ppm (Myzus persicae) | percent control (mortality or growth inhibition) at 200 ppm (Plutella xylostella) | percent control (mortality, anti-feedant effect or growth inhibition) at 200 ppm (Spodoptera littoralis)

C[C@H](NC(=O)c1cc(Cl)cc(C(F)F)c1)c1ncnn1-c1ccc(=O)n(C)n1 [P42, 3-chloro-5-(difluoromethyl)-N-[(1S)-1-[2-(1-methyl-6-oxo-pyridazin-3-yl)-1,2,4-triazol-3-yl]ethyl]benzamide]
≥ 80%: percent effect (mortality or growth inhibition) at 200 ppm (Euschistus heros) | percent control (mortality or growth inhibition) at 200 ppm (Diabrotica balteata) | mortality at 12 ppm (Myzus persicae) | percent control (mortality or growth inhibition) at 200 ppm (Plutella xylostella) | percent control (mortality, anti-feedant effect or growth inhibition) at 200 ppm (Spodoptera littoralis)

CC(NC(=O)c1cc(Br)cc(C(F)(F)F)c1)c1nccnc1-c1cn(C)c(=O)cn1 (stereo not shown) [P48, 3-bromo-N-[1-[3-(4-methyl-5-oxo-pyrazin-2-yl)pyrazin-2-yl]ethyl]-5-(trifluoromethyl)benzamide]
≥ 80%: percent control (mortality, anti-feedant effect or growth inhibition) at 200 ppm (Chilo suppressalis) | percent control (mortality or growth inhibition) at 200 ppm (Diabrotica balteata) | mortality at 12 ppm (Myzus persicae) | percent control (mortality or growth inhibition) at 200 ppm (Plutella xylostella) | percent control (mortality, anti-feedant effect or growth inhibition) at 200 ppm (Spodoptera littoralis)
